Several values for one entry are separate records, joined by “and”; a condition that tells them apart may be missing. Equal values may be shown once. Numbers after ± are expanded uncertainties.
Experiments:
[1] = molar heat capacity at constant pressure; settings: 101.33 kPa, Small (less than 1 g) adiabatic calorimetry
[2] = for vapor or sublimation pressure: Crystal 1; for Triple point temperature: Adiabatic calorimetry
[3] = Molar enthalpy of transition or fusion; settings: Adiabatic calorimetry

NC12CC3CC(CC(C3)C1)C2 [tricyclo(3.3.1.1:3,7)decan-1-amine]
molar heat capacity at constant pressure ([1]; 5 K, Crystal 3): 0.4688 ± 0.025 J/K/mol | molar heat capacity at constant pressure ([1]; 10 K, Crystal 3): 3.505 ± 0.062 J/K/mol | molar heat capacity at constant pressure ([1]; 15 K, Crystal 3): 9.163 ± 0.12 J/K/mol | molar heat capacity at constant pressure ([1]; 20 K, Crystal 3): 15.65 ± 0.17 J/K/mol | molar heat capacity at constant pressure ([1]; 25 K, Crystal 3): 21.75 ± 0.19 J/K/mol | molar heat capacity at constant pressure ([1]; 30 K, Crystal 3): 26.96 ± 0.2 J/K/mol | molar heat capacity at constant pressure ([1]; 35 K, Crystal 3): 31.21 ± 0.22 J/K/mol | molar heat capacity at constant pressure ([1]; 40 K, Crystal 3): 34.7 ± 0.24 J/K/mol | molar heat capacity at constant pressure ([1]; 45 K, Crystal 3): 37.68 ± 0.26 J/K/mol | molar heat capacity at constant pressure ([1]; 50 K, Crystal 3): 40.29 ± 0.27 J/K/mol | molar heat capacity at constant pressure ([1]; 60 K, Crystal 3): 44.98 ± 0.29 J/K/mol | molar heat capacity at constant pressure ([1]; 70 K, Crystal 3): 49.57 ± 0.32 J/K/mol | molar heat capacity at constant pressure ([1]; 80 K, Crystal 3): 54.53 ± 0.34 J/K/mol | molar heat capacity at constant pressure ([1]; 90 K, Crystal 3): 59.87 ± 0.39 J/K/mol | molar heat capacity at constant pressure ([1]; 100 K, Crystal 3): 65.39 ± 0.42 J/K/mol | molar heat capacity at constant pressure ([1]; 110 K, Crystal 3): 71.11 ± 0.45 J/K/mol | molar heat capacity at constant pressure ([1]; 120 K, Crystal 3): 77.06 ± 0.47 J/K/mol | molar heat capacity at constant pressure ([1]; 130 K, Crystal 3): 83.31 ± 0.5 J/K/mol | molar heat capacity at constant pressure ([1]; 140 K, Crystal 3): 89.8 ± 0.5 J/K/mol | molar heat capacity at constant pressure ([1]; 150 K, Crystal 3): 96.61 ± 0.58 J/K/mol | molar heat capacity at constant pressure ([1]; 160 K, Crystal 3): 103.8 ± 0.58 J/K/mol | molar heat capacity at constant pressure ([1]; 170 K, Crystal 3): 111.5 ± 0.67 J/K/mol | molar heat capacity at constant pressure ([1]; 180 K, Crystal 3): 119.5 ± 0.67 J/K/mol | molar heat capacity at constant pressure ([1]; 190 K, Crystal 3): 128 ± 0.75 J/K/mol | molar heat capacity at constant pressure ([1]; 200 K, Crystal 3): 136.9 ± 0.75 J/K/mol | molar heat capacity at constant pressure ([1]; 210 K, Crystal 3): 146.4 ± 0.83 J/K/mol | molar heat capacity at constant pressure ([1]; 220 K, Crystal 3): 156.5 ± 0.83 J/K/mol | molar heat capacity at constant pressure ([1]; 230 K, Crystal 3): 167.1 ± 0.92 J/K/mol | molar heat capacity at constant pressure ([1]; 240 K, Crystal 3): 178.3 ± 1 J/K/mol | molar heat capacity at constant pressure ([1]; 241.4 K, Crystal 2): 179.9 ± 1 J/K/mol | molar heat capacity at constant pressure ([1]; 241.4 K, Crystal 3): 179.9 ± 1 J/K/mol | molar heat capacity at constant pressure ([1]; 250 K, Crystal 2): 190.2 ± 1 J/K/mol | molar heat capacity at constant pressure ([1]; 260 K, Crystal 2): 202.7 ± 1.1 J/K/mol | molar heat capacity at constant pressure ([1]; 270 K, Crystal 2): 215.9 ± 1.2 J/K/mol | molar heat capacity at constant pressure ([1]; 280 K, Crystal 2): 230 ± 1.2 J/K/mol | molar heat capacity at constant pressure ([1]; 284.6 K, Crystal 1): 263.6 ± 1.4 J/K/mol | molar heat capacity at constant pressure ([1]; 284.6 K, Crystal 2): 236.6 ± 1.2 J/K/mol | molar heat capacity at constant pressure ([1]; 290 K, Crystal 1): 264.7 ± 1.4 J/K/mol | molar heat capacity at constant pressure ([1]; 298.15 K, Crystal 1): 266.4 ± 1.4 J/K/mol | molar heat capacity at constant pressure ([1]; 300 K, Crystal 1): 266.8 ± 1.4 J/K/mol | molar heat capacity at constant pressure ([1]; 310 K, Crystal 1): 268.9 ± 1.4 J/K/mol | molar heat capacity at constant pressure ([1]; 320 K, Crystal 1): 271.1 ± 1.4 J/K/mol | molar heat capacity at constant pressure ([1]; 330 K, Crystal 1): 273.1 ± 1.4 J/K/mol | molar heat capacity at constant pressure ([1]; 340 K, Crystal 1): 275.5 ± 1.4 J/K/mol | molar heat capacity at constant pressure ([1]; 350 K, Crystal 1): 278.5 ± 1.4 J/K/mol | molar heat capacity at constant pressure ([1]; 360 K, Crystal 1): 282.1 ± 1.5 J/K/mol | molar heat capacity at constant pressure ([1]; 370 K, Crystal 1): 286.4 ± 1.5 J/K/mol | vapor or sublimation pressure ([2]; 291.05 K, Calculated from knudsen effusion weight loss): 0.00621 ± 0.00087 kPa | vapor or sublimation pressure ([2]; 291.07 K, Calculated from knudsen effusion weight loss): 0.00627 ± 0.00088 kPa | vapor or sublimation pressure ([2]; 291.2 K, Transpiration method): 0.00632 ± 0.00032 kPa | vapor or sublimation pressure ([2]; 293.54 K, Calculated from knudsen effusion weight loss): 0.00757 ± 0.0011 kPa | vapor or sublimation pressure ([2]; 293.55 K, Calculated from knudsen effusion weight loss): 0.00752 ± 0.0011 kPa | vapor or sublimation pressure ([2]; 294.2 K, Transpiration method): 0.00832 ± 0.00042 kPa | vapor or sublimation pressure ([2]; 297.1 K, Transpiration method): 0.0107 ± 0.0005 kPa | mass density ([2]; 298.15 K, 101.33 kPa, Crystal 3, Pycnometric method): 1100 ± 100 kg/m3 | vapor or sublimation pressure ([2]; 300.1 K, Transpiration method): 0.0137 ± 0.0007 kPa | vapor or sublimation pressure ([2]; 303.2 K, Transpiration method): 0.0186 ± 0.0009 kPa | vapor or sublimation pressure ([2]; 305.6 K, Transpiration method): 0.0223 ± 0.0011 kPa | vapor or sublimation pressure ([2]; 305.94 K, Calculated from knudsen effusion weight loss): 0.0211 ± 0.0035 kPa | vapor or sublimation pressure ([2]; 305.98 K, Calculated from knudsen effusion weight loss): 0.0204 ± 0.0034 kPa | vapor or sublimation pressure ([2]; 308.1 K, Transpiration method): 0.027 ± 0.0014 kPa | vapor or sublimation pressure ([2]; 308.52 K, Calculated from knudsen effusion weight loss): 0.0263 ± 0.0045 kPa | vapor or sublimation pressure ([2]; 310.4 K, Transpiration method): 0.0291 ± 0.0015 kPa | vapor or sublimation pressure ([2]; 310.94 K, Calculated from knudsen effusion weight loss): 0.0309 ± 0.0054 kPa and 0.0315 ± 0.0055 kPa | vapor or sublimation pressure ([2]; 313.2 K, Transpiration method): 0.0396 ± 0.002 kPa | vapor or sublimation pressure ([2]; 318 K, Transpiration method): 0.0535 ± 0.0027 kPa | vapor or sublimation pressure ([2]; 318.3 K, Transpiration method): 0.0549 ± 0.0027 kPa | vapor or sublimation pressure ([2]; 323.3 K, Transpiration method): 0.0777 ± 0.0039 kPa | vapor or sublimation pressure ([2]; 328.1 K, Transpiration method): 0.108 ± 0.005 kPa | vapor or sublimation pressure ([2]; 333.4 K, Transpiration method): 0.148 ± 0.007 kPa and 0.153 ± 0.008 kPa | vapor or sublimation pressure ([2]; 338.3 K, Transpiration method): 0.2 ± 0.01 kPa | vapor or sublimation pressure ([2]; 338.5 K, Transpiration method): 0.205 ± 0.01 kPa | vapor or sublimation pressure ([2]; 343.4 K, Transpiration method): 0.269 ± 0.014 kPa | vapor or sublimation pressure ([2]; 343.6 K, Transpiration method): 0.286 ± 0.014 kPa | Triple point temperature ([2]; Crystal 2): 284.6 ± 0.1 K | Triple point temperature ([2]; Crystal 3): 241.4 ± 0.1 K | Molar enthalpy of transition or fusion ([3]; Crystal 2): 1.269 ± 0.00287 kcal/mol | Molar enthalpy of transition or fusion ([3]; Crystal 3): 0.41 ± 0.00574 kcal/mol

Source: the NIST ThermoML archive (doi:10.1016/j.jct.2007.08.002)
